These are literature values, as cited in US20250025420A1, “TERNARY CO-AMORPHOUS FORMS OF DRUGS, PROTEINS, AND WATER-SOLUBLE POLYMERS” (Zerion Pharma APS, priority 2021, published 2025).

The conditions of the series: stated in Materials.

As to `C=C(C)[C@@H]1CCC(C)=C[C@H]1c1c(O)cc(CCCCC)cc1O` [Cannabidiol], the pKa (in general, the negative logarithm of the acid dissociation constant) is recorded as 9.7.
Turning to `C=CC(=O)N1CCC[C@@H](n2nc(-c3ccc(Oc4ccccc4)cc3)c3c(N)ncnc32)C1` [Ibrutinib], the pKa was 3.74.
